Results reported in patent publication US20240417398A1, “TETRAHYDRONAPTHYRIDINE AND RELATED ANALOGS FOR INHIBITING YAP/TAZ-TEAD” (SpringWorks Therapeutics, Inc., priority 2023, published 2024).
pEC50, pIC50: −log10 of the molar value.

Columns and labels:
Type in all cases: cell-based
[1] = tested on: NCI-H226; assay: Mesothelioma cell line proliferation assay (ATPlite), NCI-H226; settings: Homo sapiens, 144 h; NCI-H226 cells, 6 days with compound, ATPlite cell viability
Procedure: (§1) Mesothelioma cell lines, NCI-H226 and NCI-H2052 (both sourced from the ATCC cell culture collection) were plated in 96-well plates (Corning® 96 Well White Polystyrene Microplate clear flat bottom, white polystyrene (TC-Treated)), at 1500 cells/well in full medium (RPMI 1640 ATCC modification with L-glutamine, HEPES, Phenol Red, Sodium Pyruvate, High glucose, Low sodium bicarbonate and 10% fetal bovine serum). Cells were incubated overnight at 37° C. in an incubator with 5% CO2. Then compounds, dissolved in DMSO, were added in dose-response. Cells were incubated with compound dilutions for another 6 days at 37° C. in an incubator with 5% CO2. Cell viability was quantitated using the ATPlite kit (Perkin-Elmer) and the luminescence was read-out using an Envision instrument (Perkin-Elmer). The amount of relative light units produced using the ATPlite kit was used to calculate percent of inhibition.
(§2) The activities of some example compounds are depicted in Table 4. The activity ranges A, B and C refer to EC50 values in the mesothelioma cell line proliferation assay as described as follows: “A”: EC50<1 μM; “B”: 1 μM≤EC50<10 μM and “C”: EC50>10 μM; NT: not tested.

[2] = tested on: NCI-H2052; assay: Mesothelioma cell line proliferation assay (ATPlite), NCI-H2052; settings: Homo sapiens, 144 h; NCI-H2052 cells, 6 days with compound, ATPlite cell viability
Procedure: as §1, §2

[3] = tested on: YAP/TAZ-TEAD transcription; assay: Reporter gene assay for measuring the inhibition of YAP/TAZ-TEAD transcription (TEAD-responsive element luciferase reporter, Hek293T cells); settings: Homo sapiens, HEK-293T, 24 h, Hek293T cells transfected with TEAD-responsive element luciferase reporter, 24 hours incubation
In short: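 HEK293T cells transiently transfected with a TEAD-responsive luciferase reporter are plated on compounds and incubated 24 h at 37 °C/5% CO2, then read with SteadyLite luminescence. Percent inhibition is normalised to vehicle (0%) and a positive-control inhibitor (100%); IC50 is derived from these values.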

SMILES | pEC50 [1] | pEC50 [2] | pIC50 [3]
C=CC(=O)NCC1Cc2c(CCN3CC(=O)NC(=O)C3)cccc2N(c2ccc(C(F)(F)F)cc2)C1 (stereo not drawn) [Cpd. No. 11, N-((5-(2-(3,5-dioxopiperazin-1-yl)ethyl)-1-(4-(trifluoromethyl)phenyl)-1,2,3,4-tetrahydroquinolin-3-yl)methyl)acrylamide] | > 6.00 | > 6.00 | > 6.00
C=CC(=O)NCC1Cc2c(OCc3cc(=O)[nH]c(=O)n3C)cccc2N(c2ccc(C(F)(F)F)cc2)C1 (stereo not drawn) [Cpd. No. 14, N-((5-((3-methyl-2,6-dioxo-1,2,3,6-tetrahydropyrimidin-4-yl)methoxy)-1-(4-(trifluoromethyl)phenyl)-1,2,3,4-tetrahydroquinolin-3-yl)methyl)acrylamide] | > 6.00 | > 6.00 | > 6.00
CC(=O)NCC1Cc2nc(C)ccc2N(c2ccc(C(F)(F)F)cc2)C1 (stereo not drawn) [Cpd. No. 26, N-((6-methyl-1-(4-(trifluoromethyl)phenyl)-1,2,3,4-tetrahydro-1,5-naphthyridin-3-yl)methyl)acetamide] | > 6.00 | > 6.00 | > 6.00

Other lines, results leading:

pEC50 [1] | pEC50 [2] | pIC50 [3] | SMILES
> 6.00 | > 6.00 | > 6.00 | C=CC(=O)NCC1Cc2ncccc2N(c2ccc(C(F)(F)F)cc2)C1 (stereo not drawn) [Cpd. No. 10, N-((1-(4-(trifluoromethyl)phenyl)-1,2,3,4-tetrahydro-1,5-naphthyridin-3-yl)methyl)acrylamide]
> 6.00 | > 6.00 | > 6.00 | CC(=O)NCC1Cc2ncccc2N(c2ccc(C(F)(F)F)cc2)C1 (stereo not drawn) [Cpd. No. 12, N-((1-(4-(trifluoromethyl)phenyl)-1,2,3,4-tetrahydro-1,5-naphthyridin-3-yl)methyl)acetamide]
